Measured values taken from PubChem BioAssay (NCI).
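Protocol summary: plate cells (96-well), add compound at 5 concentrations, incubate 48 h, interpolate endpoints linearly. GI50: concentration for 50% inhibition of growth. At the TGI there is no net growth.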

Key:
Assay in all cases: NCI tumour cell line growth inhibition, 48 h
UACC-62 melanoma = test system: UACC-62 melanoma
HT29 colon = test system: HT29 colon
MCF7 breast = test system: MCF7 breast
SK-MEL-2 melanoma = test system: SK-MEL-2 melanoma
SF-268 CNS = test system: SF-268 CNS
SN12C renal = test system: SN12C renal
SR leukemia = test system: SR leukemia
DU-145 prostate = test system: DU-145 prostate
OVCAR-8 ovarian = test system: OVCAR-8 ovarian
HS 578T breast = test system: HS 578T breast
CCRF-CEM leukemia = test system: CCRF-CEM leukemia
OVCAR-3 ovarian = test system: OVCAR-3 ovarian
A498 renal = test system: A498 renal
NCI-H23 lung = test system: NCI-H23 lung
UO-31 renal = test system: UO-31 renal
LOX IMVI melanoma = test system: LOX IMVI melanoma
SF-539 CNS = test system: SF-539 CNS
HCC-2998 colon = test system: HCC-2998 colon
SNB-75 CNS = test system: SNB-75 CNS
T-47D breast = test system: T-47D breast
OVCAR-4 ovarian = test system: OVCAR-4 ovarian
TK-10 renal = test system: TK-10 renal
EKVX NSCLC = test system: EKVX NSCLC
SK-OV-3 ovarian = test system: SK-OV-3 ovarian
U251 CNS = test system: U251 CNS
COLO 205 colon = test system: COLO 205 colon
SF-295 CNS = test system: SF-295 CNS
KM12 colon = test system: KM12 colon
UACC-257 melanoma = test system: UACC-257 melanoma
HOP-92 NSCLC = test system: HOP-92 NSCLC
M14 melanoma = test system: M14 melanoma
HOP-62 NSCLC = test system: HOP-62 NSCLC
RXF 393 renal = test system: RXF 393 renal
MDA-MB-435 = test system: MDA-MB-435
SK-MEL-5 melanoma = test system: SK-MEL-5 melanoma
SK-MEL-28 melanoma = test system: SK-MEL-28 melanoma
CAKI-1 renal = test system: CAKI-1 renal
PC-3 prostate = test system: PC-3 prostate
HCT-15 colon = test system: HCT-15 colon
IGROV1 ovarian = test system: IGROV1 ovarian
NCI-H226 lung = test system: NCI-H226 lung
786-0 renal = test system: 786-0 renal
HL-60(TB) leukemia = test system: HL-60(TB) leukemia
A549 NSCLC = test system: A549 NSCLC
ACHN renal = test system: ACHN renal
MALME-3M melanoma = test system: MALME-3M melanoma
NCI/ADR-RES ovarian = test system: NCI/ADR-RES ovarian
NCI-H522 lung = test system: NCI-H522 lung
HCT-116 colon = test system: HCT-116 colon
OVCAR-5 ovarian = test system: OVCAR-5 ovarian
MDA-MB-231 breast = test system: MDA-MB-231 breast
SW-620 colon = test system: SW-620 colon
SNB-19 CNS = test system: SNB-19 CNS
NCI-H460 lung = test system: NCI-H460 lung
RPMI-8226 leukemia = test system: RPMI-8226 leukemia
BT-549 breast = test system: BT-549 breast
K-562 leukemia = test system: K-562 leukemia

COc1cc(-c2csc(NC(=O)Nc3ccc(Cl)cc3)n2)cc(OC)c1OC
GI50 (UACC-62 melanoma): 1.93 µM
TGI (UACC-62 melanoma): 4.22 µM
GI50 (HT29 colon): 3.01 µM
TGI (HT29 colon): 12.4 µM
GI50 (MCF7 breast): 2.53 µM
TGI (MCF7 breast): 10.7 µM
GI50 (SK-MEL-2 melanoma): 2.18 µM
TGI (SK-MEL-2 melanoma): 5.04 µM
GI50 (SF-268 CNS): 3.28 µM
TGI (SF-268 CNS): 20.8 µM
GI50 (SN12C renal): 3.18 µM
TGI (SN12C renal): 13.7 µM
GI50 (SR leukemia): 4.36 µM
TGI (SR leukemia): > 100 µM
GI50 (DU-145 prostate): 3.4 µM
TGI (DU-145 prostate): 17.3 µM
GI50 (OVCAR-8 ovarian): 2.46 µM
TGI (OVCAR-8 ovarian): 5.85 µM
GI50 (HS 578T breast): 3.58 µM
TGI (HS 578T breast): 20.3 µM
GI50 (CCRF-CEM leukemia): 3.44 µM
TGI (CCRF-CEM leukemia): > 49.9 µM
GI50 (OVCAR-3 ovarian): 2.54 µM
TGI (OVCAR-3 ovarian): 7.23 µM
GI50 (A498 renal): 2.24 µM
TGI (A498 renal): 8.03 µM
GI50 (NCI-H23 lung): 2.54 µM
TGI (NCI-H23 lung): 10.9 µM
GI50 (UO-31 renal): 2.35 µM
TGI (UO-31 renal): 7.68 µM
GI50 (LOX IMVI melanoma): 2.59 µM
TGI (LOX IMVI melanoma): 7.59 µM
GI50 (SF-539 CNS): 2.98 µM
TGI (SF-539 CNS): 13.7 µM
GI50 (HCC-2998 colon): 3.9 µM
TGI (HCC-2998 colon): 18.8 µM
GI50 (SNB-75 CNS): 2.12 µM
TGI (SNB-75 CNS): 8.39 µM
GI50 (T-47D breast): 1.91 µM
TGI (T-47D breast): 6.29 µM
GI50 (OVCAR-4 ovarian): 2.89 µM
TGI (OVCAR-4 ovarian): > 49.6 µM
GI50 (TK-10 renal): 3.25 µM
TGI (TK-10 renal): 14.9 µM
GI50 (EKVX NSCLC): 2.77 µM
TGI (EKVX NSCLC): > 64.5 µM
GI50 (SK-OV-3 ovarian): 3 µM
TGI (SK-OV-3 ovarian): 8.91 µM
GI50 (U251 CNS): 3.35 µM
TGI (U251 CNS): 13.1 µM
GI50 (COLO 205 colon): 2.52 µM
TGI (COLO 205 colon): 7.05 µM
GI50 (SF-295 CNS): 2.51 µM
TGI (SF-295 CNS): 8.45 µM
GI50 (KM12 colon): 2.57 µM
TGI (KM12 colon): 7.9 µM
GI50 (UACC-257 melanoma): 2.48 µM
TGI (UACC-257 melanoma): 6.03 µM
GI50 (HOP-92 NSCLC): 2.12 µM
TGI (HOP-92 NSCLC): 6.85 µM
GI50 (M14 melanoma): 2.27 µM
TGI (M14 melanoma): 5.92 µM
GI50 (HOP-62 NSCLC): 2.65 µM
TGI (HOP-62 NSCLC): 7.76 µM
GI50 (RXF 393 renal): 3.91 µM
TGI (RXF 393 renal): 13.9 µM
GI50 (MDA-MB-435): 2.17 µM
TGI (MDA-MB-435): 5.88 µM
GI50 (SK-MEL-5 melanoma): 2.2 µM
TGI (SK-MEL-5 melanoma): 5.2 µM
GI50 (SK-MEL-28 melanoma): 2.44 µM
TGI (SK-MEL-28 melanoma): 7.12 µM
GI50 (CAKI-1 renal): 2.91 µM
TGI (CAKI-1 renal): 11.1 µM
GI50 (PC-3 prostate): 2.4 µM
TGI (PC-3 prostate): 8.39 µM
GI50 (HCT-15 colon): 2.9 µM
TGI (HCT-15 colon): > 40.9 µM
GI50 (IGROV1 ovarian): 3.18 µM
TGI (IGROV1 ovarian): 29.5 µM
GI50 (NCI-H226 lung): 3.22 µM
TGI (NCI-H226 lung): 10.7 µM
GI50 (786-0 renal): 2.35 µM
TGI (786-0 renal): 7.83 µM
GI50 (HL-60(TB) leukemia): 2.79 µM
TGI (HL-60(TB) leukemia): 6.83 µM
GI50 (A549 NSCLC): 3.15 µM
TGI (A549 NSCLC): 13.4 µM
GI50 (ACHN renal): 2.53 µM
TGI (ACHN renal): 7.35 µM
GI50 (MALME-3M melanoma): 2.11 µM
TGI (MALME-3M melanoma): 6.32 µM
GI50 (NCI/ADR-RES ovarian): 2.7 µM
TGI (NCI/ADR-RES ovarian): 8.65 µM
GI50 (NCI-H522 lung): 2.34 µM
TGI (NCI-H522 lung): 6.95 µM
GI50 (HCT-116 colon): 2.83 µM
TGI (HCT-116 colon): 8.12 µM
GI50 (OVCAR-5 ovarian): 3.56 µM
TGI (OVCAR-5 ovarian): 21 µM
GI50 (MDA-MB-231 breast): 2.99 µM
TGI (MDA-MB-231 breast): 12.7 µM
GI50 (SW-620 colon): 3.96 µM
TGI (SW-620 colon): > 100 µM
GI50 (SNB-19 CNS): 3.78 µM
TGI (SNB-19 CNS): 30.2 µM
GI50 (NCI-H460 lung): 3.32 µM
TGI (NCI-H460 lung): > 48.4 µM
GI50 (RPMI-8226 leukemia): 2.14 µM
TGI (RPMI-8226 leukemia): 5.78 µM
GI50 (BT-549 breast): 2.18 µM
TGI (BT-549 breast): 6.26 µM
GI50 (K-562 leukemia): 3.38 µM
TGI (K-562 leukemia): > 100 µM
